Among the data in patent publication US20090062251A1, “Novel Compounds 002” (ASTRAZENECA AB, priority 2007, published 2009) are Emax, Ki and EC50 values, retold here.

In assay [1] the target is T1, Human CB1 receptor (hCB1) (Homo sapiens, UniProt P21554).
T1 construct: purchased Receptor Biology
The assay is described as follows: hCB1 GTPγS binding. In kind it is biochemical. Particulars: for Emax: maximal stimulated binding determined with 10 μM Win 55,212-2; for EC50: hCB1 membranes, GTPγ35S, 10-point dose-response. The procedure:
hCB1 and hCB2 GTPγS Binding
Human CB1 receptor from Receptor Biology (hCB1) or human CB2 receptor membranes (BioSignal) are thawed at 37° C., passed 3 times through a 25-gauge blunt-end needle and diluted in the GTPγS binding buffer (50 mM Hepes, 20 mM NaOH, 100 mM NaCl, 1 mM EDTA, 5 mM MgCl2, pH 7.4, 0.1% BSA). […] The basal and maximal stimulated binding is determined in absence and presence of 1 μM (hCB2) or 10 μM (hCB1) Win 55, 212-2 respectively. The membranes are pre-incubated for 5 minutes with 56.25 μM (hCB2) or 112.5 μM (hCB1) GDP prior to distribution in plates (15 μM (hCB2) or 30 μM (hCB1) GDP final). The plates are vortexed and incubated for 60 minutes at room temperature, filtered on Unifilters GF/B (presoaked in water) with the Tomtec or Packard harvester using 3 ml of wash buffer (50 mM Tris, 5 mM MgCl2, 50 mM NaCl, pH 7.0). The filters are dried for 1 hour at 55° C. The radioactivity (cpm) is counted in a TopCount (Packard) after adding 65 μl/well of MS-20 scintillation liquid. Antagonist reversal studies are done in the same way except that (a) an agonist dose-response curve is done in the presence of a constant concentration of antagonist, or (b) an antagonist dose-response curve is done in the presence of a constant concentration of agonist.

The target of assay [2] is T1, Human CB1 receptor (hCB1). The assay can be described thus: hCB1 receptor binding (3H-CP55,940 displacement). Particulars: hCB1 membranes, Ki=IC50/(1+[rad]/Kd). As to the method: hCB1 and hCB2 Receptor Binding
Human CB1 receptor from Receptor Biology (hCB1) or human CB2 receptor from BioSignal (hCB2) membranes are thawed at 37° C., passed 3 times through a 25-gauge blunt-end needle, diluted in the cannabinoid binding buffer (50 mM Tris, 2.5 mM EDTA, 5 mM MgCl2, and 0.5 mg/mL BSA fatty acid free, pH 7.4) and aliquots containing the appropriate amount of protein are distributed in 96-well plates. […] The total and non-specific binding are determined in the absence and presence of 0.2 μM of HU210 respectively. The plates are vortexed and incubated for 60 minutes at room temperature, filtered through Unifilters GF/B (presoaked in 0.1% polyethyleneimine) with the Tomtec or Packard harvester using 3 mL of wash buffer (50 mM Tris, 5 mM MgCl2, 0.5 mg BSA pH 7.0). The filters are dried for 1 hour at 55° C. The radioactivity (cpm) is counted in a TopCount (Packard) after adding 65 μl/well of MS-20 scintillation liquid.
Based on the above assays, the dissociation constant (Ki) for a particular compound of the invention towards a particular receptor is determined using the following equation:
[rad] is a standard or reference radioactive ligand concentration at that moment; and
Kd is the dissociation constant of the radioactive ligand towards the particular receptor.

T1 sequence (P21554 whole entry): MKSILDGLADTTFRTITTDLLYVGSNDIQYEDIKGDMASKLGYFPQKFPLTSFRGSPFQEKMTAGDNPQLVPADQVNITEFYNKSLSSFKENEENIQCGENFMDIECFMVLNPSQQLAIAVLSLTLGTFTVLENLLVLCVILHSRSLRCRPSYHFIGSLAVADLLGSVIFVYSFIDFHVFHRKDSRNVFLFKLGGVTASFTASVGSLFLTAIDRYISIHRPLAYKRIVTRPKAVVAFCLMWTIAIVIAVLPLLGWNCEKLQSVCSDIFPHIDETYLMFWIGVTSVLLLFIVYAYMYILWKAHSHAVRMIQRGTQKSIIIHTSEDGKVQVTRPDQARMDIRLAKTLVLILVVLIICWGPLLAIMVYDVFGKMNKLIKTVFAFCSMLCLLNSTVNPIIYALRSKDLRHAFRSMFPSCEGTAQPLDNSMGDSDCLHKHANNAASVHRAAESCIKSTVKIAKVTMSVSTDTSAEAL

Compound `Cn1c2c(c3cc(C(=O)N4CC[C@H](C(=O)NCCF)C4)ccc31)CC(C1CCOCC1)CC2` (stereo partly drawn) [(3S)—N-(2-fluoroethyl)-1-[9-methyl-6-(oxan-4-yl)5,6,7,8-tetrahydrocarbazole-3-carbonyl]pyrrolidine-3-carboxamide] showed an Emax in assay [1] of 119%. This compound also returned a Ki in assay [2] of 30.5 nM.

Regarding `Cn1c2c(c3cc(C(=O)N4CC[C@H](C(=O)NCC5CC5)C4)ccc31)CC(C1CCOCC1)CC2` (stereo partly drawn) [(3S)—N-(cyclopropylmethyl)-1-[9-methyl-6-(oxan-4-yl)5,6,7,8-tetrahydrocarbazole-3-carbonyl]pyrrolidine-3-carboxamide], in assay [1], a half-maximal response (EC50) required 251 nM and the Emax amounted to 117%. Besides, the Ki in assay [2] is 109 nM.

Turning to `CCNC(=O)[C@H]1CCN(C(=O)c2ccc3c(c2)c2c(n3C)CCC(C3CCOCC3)C2)C1` (stereo partly drawn) [(3S)—N-ethyl-1-[9-methyl-6-(oxan-4-yl)5,6,7,8-tetrahydrocarbazole-3-carbonyl]pyrrolidine-3-carboxamide], in assay [1], the EC50 is 103 nM and the Emax is 122%. The Ki in assay [2] was found to be 69.9 nM.

In assay [1], `CCn1c2c(c3cc(C(=O)N4CCC(C)CC4)ccc31)CC(C1CCCCC1)CC2` (centres unmarked) [(6-cyclohexyl-9-ethyl-5,6,7,8-tetrahydrocarbazol-3-yl)-(4-methyl-1-piperidyl)methanone] registered an EC50 of 234 nM and an Emax of 90%. Further, the Ki in assay [2] was 82.3 nM.

In assay [1], `CCS(=O)(=O)n1c2c(c3cc(C(=O)N4CCC(C)CC4)ccc31)CC(C1CCCCC1)CC2` (centres unmarked) [(6-cyclohexyl-9-ethylsulfonyl-5,6,7,8-tetrahydrocarbazol-3-yl)-(4-methyl-1-piperidyl)methanone] showed a concentration giving a half-maximal response (EC50) of 20 nM and a maximum response (Emax) of 107%. In addition, in assay [2], the Ki was determined as 15.2 nM.

In assay [1], `CC1CCN(C(=O)c2ccc3c(c2)c2c(n3C)CCC(C3CCCCC3)C2)CC1` (centres unmarked) [(6-cyclohexyl-9-methyl-5,6,7,8-tetrahydrocarbazol-3-yl)-(4-methyl-1-piperidyl)methanone] displayed an EC50 of 65.1 nM and an Emax of 106%. In addition, in assay [2], affinity was put at a Ki of 29.5 nM.

`CC1CCN(C(=O)c2ccc3c(c2)c2c(n3S(C)(=O)=O)CCC(C3CCCCC3)C2)CC1` (centres unmarked) [(6-cyclohexyl-9-methylsulfonyl-5,6,7,8-tetrahydrocarbazol-3-yl)-(4-methyl-1-piperidyl)methanone]: in assay [1], the EC50 stood at 277 nM and the Emax amounted to 89%. In assay [2], the affinity, expressed as Ki, was 75.3 nM.

Take `CN(CCCC(=O)NCCO)C(=O)c1ccc2c(c1)c1c(n2C)CC[C@@H](C2CCOCC2)C1` [(R)—N-(4-(2-Hydroxyethylamino)-4-oxobutyl)-N,9-dimethyl-3-(tetrahydro-2H-pyran-4-yl)-2,3,4,9-tetrahydro-1H-carbazole-6-carboxamide]: in assay [1], a half-maximal effect (EC50) was put at 173 nM and the Emax was 120%. The compound further showed a Ki in assay [2] of 69 nM.

With `CN(C(=O)c1ccc2c(c1)c1c(n2C)CC[C@@H](C2CCOCC2)C1)[C@H](CO)CCC(=O)NCCF` [(R)—N-((S)-5-(2-Fluoroethylamino)-1-hydroxy-5-oxopentan-2-yl)-N,9-dimethyl-3-(tetrahydro-2H-pyran-4-yl)-2,3,4,9-tetrahydro-1H-carbazole-6-carboxamide], in assay [1], the EC50 came to 61 nM and the Emax came to 118%. This compound registered a Ki in assay [2] of 26 nM.

Turning to `CCNC(=O)CC[C@@H](CO)N(C)C(=O)c1ccc2c(c1)c1c(n2C)CC[C@@H](C2CCOCC2)C1` [(R)—N-((S)-5-(Ethylamino)-1-hydroxy-5-oxopentan-2-yl)-N,9-dimethyl-3-(tetrahydro-2H-pyran-4-yl)-2,3,4,9-tetrahydro-1H-carbazole-6-carboxamide], in assay [1], a half-maximal response (EC50) required 79 nM and the Emax was found to be 126%. For the same compound, in assay [2], the affinity corresponds to a Ki of 36 nM.

In assay [1], `CCN(CC(=O)NCC(F)F)C(=O)c1ccc2c(c1)c1c(n2C)CCC(C2CCOCC2)C1` (centres unmarked) [N-(2,2-difluoroethylcarbamoylmethyl)-N-ethyl-9-methyl-6-(oxan-4-yl)-5,6,7,8-tetrahydrocarbazole-3-carboxamide] returned an EC50 of 39.9 nM and an Emax of 116%. Further, the Ki in assay [2] came to 17.1 nM.

For the compound `CCN(CC(=O)NCCC#N)C(=O)c1ccc2c(c1)c1c(n2S(=O)(=O)CC)CCC(C2CCOCC2)C1` (centres unmarked) [N-(2-cyanoethylcarbamoylmethyl)-N-ethyl-9-ethylsulfonyl-6-(oxan-4-yl)-5,6,7,8-tetrahydrocarbazole-3-carboxamide], in assay [1], it took 120 nM to reach a half-maximal effect (EC50) and the Emax was found to be 115%. This compound also displayed a Ki in assay [2] of 115 nM.

In assay [1], `Cn1c2c(c3cc(C(=O)N4CCC(C(=O)NCCF)C4)ccc31)CC(C1CCOCC1)CC2` (centres unmarked) [N-(2-fluoroethyl)-1-[9-methyl-6-(oxan-4-yl)5,6,7,8-tetrahydrocarbazole-3-carbonyl]pyrrolidine-3-carboxamide] displayed an EC50 of 263 nM and an Emax of 121%. The same compound yielded a Ki in assay [2] of 126 nM.

In assay [1], `CN(CC(=O)NCCF)C(=O)c1ccc2c(c1)c1c(n2C)CCC(C2CCOCC2)C1` (centres unmarked) [N-(2-fluoroethylcarbamoylmethyl)-N,9-dimethyl-6-(oxan-4-yl)-5,6,7,8-tetrahydrocarbazole-3-carboxamide] registered an EC50 of 721 nM and an Emax of 110%. This compound displayed a Ki in assay [2] of 291 nM.

As for `CCN(CC(=O)NC1CC1)C(=O)c1ccc2c(c1)c1c(n2CC2CC2)CCC(C2CCOCC2)C1` (centres unmarked) [N-(cyclopropylcarbamoylmethyl)-9-(cyclopropylmethyl)-N-ethyl-6-(oxan-4-yl)-5,6,7,8-tetrahydrocarbazole-3-carboxamide], in assay [1], a half-maximal response (EC50) required 34.2 nM and the Emax was found to be 91%. The Ki in assay [2] is 21.2 nM.

In assay [1], `CCS(=O)(=O)n1c2c(c3cc(C(=O)N(C)CC(=O)NC4CC4)ccc31)CC(C1CCOCC1)CC2` (centres unmarked) [N-(cyclopropylcarbamoylmethyl)-9-ethylsulfonyl-N-methyl-6-(oxan-4-yl)-5,6,7,8-tetrahydrocarbazole-3-carboxamide] came in with an EC50 of 18.8 nM and an Emax of 116%. The Ki in assay [2] was found to be 18.1 nM.

In assay [1], `Cn1c2c(c3cc(C(=O)N4CCCC(NC(=O)C5CC5)C4)ccc31)CC(C1CCOCC1)CC2` (centres unmarked) [N-[1-[9-methyl-6-(oxan-4-yl)5,6,7,8-tetrahydrocarbazole-3-carbonyl]-3-piperidyl]cyclopropanecarboxamide] registered an EC50 of 40.6 nM and an Emax of 115%. The compound further had a Ki in assay [2] of 26.7 nM.

`CCC(=O)NC1CCCN(C(=O)c2ccc3c(c2)c2c(n3C)CCC(C3CCOCC3)C2)C1` (centres unmarked) [N-[1-[9-methyl-6-(oxan-4-yl)5,6,7,8-tetrahydrocarbazole-3-carbonyl]-3-piperidyl]propanamide]: in assay [1], it took 263 nM to reach a half-maximal effect (EC50) and the maximal effect (Emax) was 122%. Besides, the affinity in assay [2] corresponds to a Ki of 63.2 nM.

Take `Cn1c2c(c3cc(C(=O)N4CCC(NC(=O)C5CC5)CC4)ccc31)CC(C1CCOCC1)CC2` (centres unmarked) [N-[1-[9-methyl-6-(oxan-4-yl)5,6,7,8-tetrahydrocarbazole-3-carbonyl]-4-piperidyl]cyclopropanecarboxamide]: in assay [1], the EC50 was over 30000 nM and the Emax is over 30%. Besides, the Ki in assay [2] is over 3480 nM.

In assay [1], `CN(CCN(C)C(=O)c1ccc2c(c1)c1c(n2C)CCC(C2CCOCC2)C1)C(=O)NC1CC1` (centres unmarked) [N-[2-(cyclopropylcarbamoyl-methyl-amino)ethyl]-N,9-dimethyl-6-(oxan-4-yl)-5,6,7,8-tetrahydrocarbazole-3-carboxamide] yielded an EC50 of 468 nM and an Emax of 110%. Further, in assay [2], the inhibition constant Ki was 77.5 nM.

Turning to `CN(CCN(C)C(=S)NC1CC1)C(=O)c1ccc2c(c1)c1c(n2C)CCC(C2CCOCC2)C1` (centres unmarked) [N-[2-(cyclopropylthiocarbamoyl-methyl-amino)ethyl]-N,9-dimethyl-6-(oxan-4-yl)-5,6,7,8-tetrahydrocarbazole-3-carboxamide], in assay [1], the EC50 worked out at 161 nM and the Emax is 106%. This compound also yielded a Ki in assay [2] of 9.9 nM.

In assay [1], `CCn1c2c(c3cc(C(=O)N(C)CCCC(=O)NCC(F)F)ccc31)CC(C1CCOCC1)CC2` (centres unmarked) [N-[3-(2,2-difluoroethylcarbamoyl)propyl]-9-ethyl-N-methyl-6-(oxan-4-yl)-5,6,7,8-tetrahydrocarbazole-3-carboxamide] had an EC50 of 98.3 nM and an Emax of 114%. The compound also gave a Ki in assay [2] of 45.2 nM.
